The target of experiment [1] is T1, 5-HT1A (Homo sapiens, UniProt P08908).
T1 sequence (P08908 1-422): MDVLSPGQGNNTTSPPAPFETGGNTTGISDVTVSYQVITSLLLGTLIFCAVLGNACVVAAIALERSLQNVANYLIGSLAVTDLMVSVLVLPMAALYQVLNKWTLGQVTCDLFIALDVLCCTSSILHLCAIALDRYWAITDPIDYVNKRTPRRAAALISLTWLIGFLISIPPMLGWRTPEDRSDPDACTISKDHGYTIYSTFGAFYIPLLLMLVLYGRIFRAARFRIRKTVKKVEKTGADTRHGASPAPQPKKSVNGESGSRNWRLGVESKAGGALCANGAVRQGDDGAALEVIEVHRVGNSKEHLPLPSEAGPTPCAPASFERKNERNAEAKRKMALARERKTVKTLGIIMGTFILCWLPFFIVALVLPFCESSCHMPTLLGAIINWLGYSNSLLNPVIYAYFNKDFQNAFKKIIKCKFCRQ
Kind of experiment: NIMH PDSP radioligand competition binding, 5-HT1A.

The target of experiment [2] is 5-HT1B (Homo sapiens, UniProt P28222). Put plainly: NIMH PDSP radioligand competition binding, 5-HT1B.
The target in experiment [3] is 5-HT1D (Homo sapiens, UniProt P28221). Kind of experiment: NIMH PDSP radioligand competition binding, 5-HT1D.
Experiment [4] has as its target 5-HT1E (Homo sapiens, UniProt P28566). Put plainly: NIMH PDSP radioligand competition binding, 5-HT1E.
Experiment [5] has as its target 5-HT2B (Homo sapiens, UniProt P41595). Kind of experiment: NIMH PDSP radioligand competition binding, 5-HT2B.
Experiment [6] addresses T2, 5-HT2C (Homo sapiens, UniProt P28335).
T2 sequence (P28335 33-458): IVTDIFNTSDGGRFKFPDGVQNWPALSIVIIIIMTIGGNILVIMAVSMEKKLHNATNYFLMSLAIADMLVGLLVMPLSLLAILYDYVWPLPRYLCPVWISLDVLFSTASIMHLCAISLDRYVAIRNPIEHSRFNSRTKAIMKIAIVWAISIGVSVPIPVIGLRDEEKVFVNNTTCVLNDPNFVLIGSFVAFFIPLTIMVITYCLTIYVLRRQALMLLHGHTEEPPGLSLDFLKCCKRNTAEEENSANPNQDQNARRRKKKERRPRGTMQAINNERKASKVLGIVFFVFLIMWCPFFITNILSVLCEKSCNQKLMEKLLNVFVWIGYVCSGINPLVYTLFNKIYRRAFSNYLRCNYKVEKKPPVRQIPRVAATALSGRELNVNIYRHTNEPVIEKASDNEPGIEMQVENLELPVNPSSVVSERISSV
Put plainly: NIMH PDSP radioligand competition binding, 5-HT2C.

In experiment [7] the target is 5-HT5A (Homo sapiens, UniProt P47898). Kind of experiment: NIMH PDSP radioligand competition binding, 5-HT5A.
Experiment [8] concerns the target serotonin transporter (SERT) (Homo sapiens, UniProt P31645). Kind of experiment: NIMH PDSP radioligand competition binding, SERT.
The target in experiment [9] is T3, α2C (Homo sapiens, UniProt P18825).
T3 sequence (P18825 1-462): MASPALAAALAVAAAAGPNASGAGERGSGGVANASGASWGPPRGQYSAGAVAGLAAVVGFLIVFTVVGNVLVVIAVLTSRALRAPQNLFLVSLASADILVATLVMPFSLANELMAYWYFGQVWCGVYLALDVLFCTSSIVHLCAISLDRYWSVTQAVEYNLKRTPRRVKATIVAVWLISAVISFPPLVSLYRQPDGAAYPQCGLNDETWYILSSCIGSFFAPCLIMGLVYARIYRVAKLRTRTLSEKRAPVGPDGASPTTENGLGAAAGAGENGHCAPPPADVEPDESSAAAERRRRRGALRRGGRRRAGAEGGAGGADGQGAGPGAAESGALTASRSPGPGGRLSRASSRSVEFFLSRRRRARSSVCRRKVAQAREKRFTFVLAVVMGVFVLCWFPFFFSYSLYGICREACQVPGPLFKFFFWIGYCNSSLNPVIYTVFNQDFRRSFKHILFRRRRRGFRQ
Put plainly: NIMH PDSP radioligand competition binding, α2C.

Experiment [10] deals with D2 (Homo sapiens, UniProt P14416). Put plainly: NIMH PDSP radioligand competition binding, D2.
The target of experiment [11] is T4, D4 (Homo sapiens, UniProt P21917).
T4 sequence (P21917 1-419): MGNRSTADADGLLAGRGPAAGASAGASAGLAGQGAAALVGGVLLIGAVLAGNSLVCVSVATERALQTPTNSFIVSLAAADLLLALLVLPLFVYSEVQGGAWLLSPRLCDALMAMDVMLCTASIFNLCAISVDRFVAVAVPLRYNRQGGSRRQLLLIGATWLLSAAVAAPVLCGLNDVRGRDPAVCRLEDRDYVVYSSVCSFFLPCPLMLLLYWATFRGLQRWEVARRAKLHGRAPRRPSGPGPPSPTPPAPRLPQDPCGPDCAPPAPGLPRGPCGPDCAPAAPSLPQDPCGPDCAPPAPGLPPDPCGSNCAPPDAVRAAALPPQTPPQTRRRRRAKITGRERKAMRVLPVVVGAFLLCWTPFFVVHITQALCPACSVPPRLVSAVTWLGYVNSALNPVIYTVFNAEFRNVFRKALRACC
Put plainly: NIMH PDSP radioligand competition binding, D4.

For experiment [12], the target named is peripheral benzodiazepine receptor (PBR) (Rattus norvegicus, UniProt P16257). Kind of experiment: NIMH PDSP radioligand competition binding, PBR.
For experiment [13], the target named is H1 (Homo sapiens, UniProt P35367). Kind of experiment: NIMH PDSP radioligand competition binding, H1.
Experiment [14] deals with head twitch response (5-HT2A receptor-mediated). Put plainly: Head twitch response. Type of experiment: in vivo, C57BL/6J mice. The conditions noted are these: for activity in the HTR assay (in words): C57BL/6J mice, IP, within the dose range tested; for ED50: Mus musculus, ip.
Where [15] appears, read: Binding Affinity (Ki, nM), [3H]N-methylspiperone, cloned human receptor.
The mark [16] stands for this setting: Binding Affinity (Ki, nM), PBR, [3H]PK11195, rat kidney, natively expressed.
The mark [17] stands for this setting: 0.875 mg/kg IP, duration 30 min.
[18] abbreviates: read-out: ED50 (95% CI) (mg/kg).
[19] abbreviates: read-out: ED50 (95% CI) (μmol/kg).

Results on five compounds are retold here after PMC6230509 (Neuropharmacology, 2018).

Where two headings read alike, the source gives them in different places.

`C=CCN(CC=C)CCc1c(-c2ccccc2)[nH]c2ccccc12` [2-Ph-DALT, 2-phenyl-N,N-diallyltryptamine]: the Ki in [1] is 402 nM; in experiment [2], 273 nM; in experiment [3], 204 nM; in experiment [4] it was above 10000 nM; in [5] it was 192 nM; in experiment [6] it was 278 nM. Besides, the Ki in experiment [7] is 1670 nM; in experiment [8], above 10000 nM; in [9], 159 nM; in experiment [10], 388 nM; in experiment [11] (setting [15]), 1000 nM; in [11] (Ki value, bound stated), below 10000 nM. Further, the inhibition constant (Ki) is 1930 nM in experiment [12] (setting [16]); below 10000 nM in experiment [12] (Ki value, peripheral benzodiazepine receptors, bound stated); 79 nM in experiment [13]. In addition, the “HTR Counts (mean ± SEM)” value in [14] (setting [17]) is 2.8 ± 0.5; in [14] (1.75 mg/kg IP, duration 30 min), 3.6 ± 1.3; in experiment [14] (3.5 mg/kg IP, duration 30 min) it was 1.4 ± 0.5; in experiment [14] (7 mg/kg IP, duration 30 min), 2.0 ± 0.5; in [14] (14 mg/kg IP, duration 30 min) it was 1.2 ± 0.5. In addition, the “activity in the HTR assay (in words)” value is on record as “abolished activity” in experiment [14] and “did not induce the HTR” in experiment [14] (listed as 2-Phenyl-DALT).
Take `C=CCN(CC=C)CCc1c[nH]c2cccc(OC(C)=O)c12` [4-AcO-DALT, 4-acetoxy-N,N-diallyltryptamine]: the inhibitory constant (Ki) was 383 nM in experiment [1]; above 10000 nM in experiment [2]; 801 nM in [3]; 467 nM in experiment [4]; 63 nM in experiment [5]; 1520 nM in [6]. The Ki in experiment [7] is 5840 nM; in experiment [8], 1090 nM; in experiment [9], 748 nM; in experiment [10], above 10000 nM; in experiment [11] (setting [15]), above 10000 nM; in [12] (setting [16]), above 10000 nM. The Ki in [13] amounted to 353 nM. Further, the “HTR Counts (mean ± SEM)” value in experiment [14] (setting [17]) is 10.4 ± 1.4; in experiment [14] (1.75 mg/kg IP, duration 30 min), 42.0 ± 9.5; in experiment [14] (3.5 mg/kg IP, duration 30 min) it was 39.0 ± 14.1; in [14] (7 mg/kg IP, duration 30 min), 65.0 ± 8.4; in experiment [14] (14 mg/kg IP, duration 30 min), 47.8 ± 10.0. Further, the “activity in the HTR assay (in words)” value in experiment [14] is “active”. In addition, the ED50 was found to be 1.99 mg/kg in experiment [14] (setting [18]) and 4.8 µmol/kg in [14] (setting [19]).
Turning to `C=CCN(CC=C)CCc1c[nH]c2cccc(O)c12` [4-HO-DALT, 4-hydroxy-N,N-diallyltryptamine], the inhibitory constant (Ki) was determined as 319 nM in experiment [1]; 2490 nM in [2]; 693 nM in experiment [3]; 238 nM in experiment [4]; 2590 nM in experiment [5]; 2110 nM in experiment [6]. Further, the inhibition constant (Ki) in [7] was above 10000 nM; in [8], 5210 nM; in experiment [9] it was above 10000 nM; in experiment [10], above 10000 nM; in experiment [11] (setting [15]), above 10000 nM; in experiment [12] (setting [16]), above 10000 nM. Moreover, in [13], the Ki was above 10000 nM. For the same compound, the “HTR Counts (mean ± SEM)” value in [14] (0.875 mg/kg IP, duration 5 min) was 4.0 ± 3.3; in experiment [14] (1.75 mg/kg IP, duration 5 min), 9.2 ± 3.7; in experiment [14] (3.5 mg/kg IP, duration 5 min), 28.6 ± 4.1; in experiment [14] (7 mg/kg IP, duration 5 min) it was 31.6 ± 4.9; in experiment [14] (14 mg/kg IP, duration 5 min) it was 24.6 ± 4.7. Moreover, the “activity in the HTR assay (in words)” value in [14] was “active”. The ED50 in experiment [14] (setting [18]) was determined as 2.6 mg/kg; in [14] (setting [19]), 8.3 µmol/kg.
For the compound `C=CCN(CC=C)CCc1c(C)[nH]c2ccc(F)cc12` [5-F-2-Me-DALT, 5-fluoro-2-methyl-N,N-diallyltryptamine], the Ki in experiment [1] was determined as 318 nM; in experiment [2] it was 2010 nM; in experiment [3], 1590 nM; in [4] it was 1270 nM; in [5] it was 17 nM; in experiment [6], 541 nM. For the same compound, the inhibitory constant (Ki) was 1920 nM in experiment [7]; 983 nM in experiment [8]; 184 nM in experiment [9]; 4420 nM in experiment [10]; above 10000 nM in experiment [11] (setting [15]); above 10000 nM in experiment [12] (setting [16]). Moreover, the Ki in experiment [13] was 435 nM. Also, the “SERT affinity, fold reduction by 2-methylation” value in [8] is listed as around 30 fold. Further, the “HTR Counts (mean ± SEM)” value in experiment [14] (setting [17]) was found to be 6.2 ± 1.0; in [14] (1.75 mg/kg IP, duration 30 min), 6.8 ± 0.9; in experiment [14] (3.5 mg/kg IP, duration 30 min), 5.8 ± 2.5; in [14] (7 mg/kg IP, duration 30 min), 6.4 ± 1.6; in experiment [14] (14 mg/kg IP, duration 30 min), 7.2 ± 0.8. Moreover, in experiment [14] (listed as 5-fluoro-2-methyl-DALT), the “activity in the HTR assay (in words)” value is listed as “did not induce the HTR”.
Regarding `C=CCN(CC=C)CCc1c(C)[nH]c2ccc(OC)cc12` [5-MeO-2-Me-DALT, 5-methoxy-2-methyl-N,N-diallyltryptamine], the Ki was 267 nM in [1]; 2270 nM in experiment [2]; 900 nM in [3]; 1590 nM in [4]; 241 nM in [5]; above 10000 nM in [6]. Moreover, the inhibition constant (Ki) in experiment [7] is 1820 nM; in [8] it was above 10000 nM; in experiment [9], 888 nM; in [10], above 10000 nM; in [11] (setting [15]) it was above 10000 nM; in [12] (setting [16]), above 10000 nM. This compound also showed a Ki in experiment [13] of 847 nM. Moreover, the “displacement at 10,000 nM” value in [8] (SERT, [3H]citalopram, at 10,000 nM) is reported as below 50%. The “HTR Counts (mean ± SEM)” value in [14] (setting [17]) came to 4.4 ± 0.2; in experiment [14] (1.75 mg/kg IP, duration 30 min), 7.4 ± 2.2; in [14] (3.5 mg/kg IP, duration 30 min), 4.2 ± 1.0; in experiment [14] (7 mg/kg IP, duration 30 min), 4.2 ± 0.9; in experiment [14] (14 mg/kg IP, duration 30 min), 5.0 ± 1.4. Further, the “activity in the HTR assay (in words)” value in experiment [14] (listed as 5-methoxy-2-methyl-DALT) is reported as “did not induce the HTR”.
